According to ChEMBL document CHEMBL1127090, “In vitro cytotoxicity of GC sequence directed alkylating agents related to distamycin” (J Med Chem, 1993):

Experiments:
Nucleic Acid [1] = experiment: Apparent binding constant to poly (dG.dC) DNA was evaluated by measuring the loss of ethidium fluorescence; format: nucleic-acid assay
Bos taurus = species on record: Bos taurus; experiment: Apparent binding constant to calf thymus DNA was evaluated by measuring the loss of ethidium fluorescence
Tequatrovirus T4 = experiment: Apparent binding constant to T4 coliphage DNA was evaluated by measuring the loss of ethidium fluorescence; format: functional
Nucleic Acid [2] = experiment: Apparent binding constant to poly (dA.dT) DNA was evaluated by measuring the loss of ethidium fluorescence; format: nucleic-acid assay
K562 [3] = experiment: Inhibitory activity against K-562 (human chronic myeloid Leukemia) cells; format: functional, cell-based
SK-MEL-2 = experiment: Cytotoxicity against the SK-MEL-2 Melanoma cell line from human cancer.; format: functional; details: read-out: LC50 (the source's name)
SK-OV-3 = experiment: Cytotoxicity against the SK-OV-3 Ovarian Cancer cell line from human cancer.; format: functional; details: read-out: LC50 (the source's name)
MOLT-4 = experiment: Cytotoxicity against the Molt-4 Leukemia cell line from human cancer.; format: functional; details: read-out: LC50 (the source's name)
SK-MEL-28 = experiment: Cytotoxicity against the SK-MEL-28 Melanoma cell line from human cancer.; format: functional; details: read-out: LC50 (the source's name)
EKVX = experiment: Cytotoxicity against the […] Non-Small Cell Lung Cancer cell line from human cancer; format: functional; details: read-out: LC50 (the source's name)
DMS-114 = experiment: Cytotoxicity against the DMS114 Small Cell Lung Cancer cell line from human cancer.; format: functional; details: read-out: LC50 (the source's name)
OVCAR-3 = experiment: Cytotoxicity against the OVCAR-3 Ovarian Cancer cell line from human cancer.; format: functional; details: read-out: LC50 (the source's name)
SW-620 = experiment: Cytotoxicity against the SW-620 Colon Cancer cell line from human cancer.; format: functional; details: read-out: LC50 (the source's name)
K562 [4] = experiment: Cytotoxicity against the K-562 Leukemia cell line from human cancer.; format: functional; details: read-out: LC50 (the source's name)
M19-MEL = experiment: Cytotoxicity against the M19-MEL Melanoma cell line from human cancer.; format: functional; details: read-out: LC50 (the source's name)
U-251 = experiment: Cytotoxicity against the U251 CNS Cancer cell line from human cancer.; format: functional; details: read-out: LC50 (the source's name)
HCC 2998 = experiment: Cytotoxicity against the HCC2998 Colon Cancer cell line from human cancer.; format: functional; details: read-out: LC50 (the source's name)
SF-268 = experiment: Cytotoxicity against the SF-268 CNS Cancer cell line from human cancer.; format: functional; details: read-out: LC50 (the source's name)
HOP-62 = experiment: Cytotoxicity against the HOP-62 Non-Small Cell Lung Cancer cell line from human cancer; format: functional; details: read-out: LC50 (the source's name)
SNB-75 = experiment: Cytotoxicity against the SNB-75 CNS Cancer cell line from human cancer.; format: functional; details: read-out: LC50 (the source's name)
KM12 = experiment: Cytotoxicity against the KM12 Colon Cancer cell line from human cancer.; format: functional; details: read-out: LC50 (the source's name)
SN12C = experiment: Cytotoxicity against the SN12C Renal Cancer cell line from human cancer.; format: functional; details: read-out: LC50 (the source's name)
HL-60 = experiment: Cytotoxicity against the HL-60 (TB) Leukemia cell line from human cancer.; format: functional; details: read-out: LC50 (the source's name)
NCI-H23 = experiment: Cytotoxicity against the NCI-H23 Non-Small Cell Lung Cancer cell line from human cancer.; format: functional; details: read-out: LC50 (the source's name)
Malme-3M = experiment: Cytotoxicity against the MALME-3M Melanoma cell line from human cancer.; format: functional; details: read-out: LC50 (the source's name)
OVCAR-4 = experiment: Cytotoxicity against the OVCAR-4 Ovarian Cancer cell line from human cancer.; format: functional; details: read-out: LC50 (the source's name)
RXF 393 = experiment: Cytotoxicity against the RXF-393 Renal Cancer cell line from human cancer.; format: functional; details: read-out: LC50 (the source's name)
COLO 205 = experiment: Cytotoxicity against the COLO-205 Colon Cancer cell line from human cancer.; format: functional; details: read-out: LC50 (the source's name)
DMS-273 = experiment: Cytotoxicity against the DMS273 Small Cell Lung Cancer cell line from human cancer.; format: functional; details: read-out: LC50 (the source's name)

Q: Which K app (Nucleic Acid [1]) does the source give for `Cn1cc(NC(=O)c2cc(NC(=O)c3cc(NC=O)cn3C)cn2C)cc1C(=O)NCCC(=N)N` [STALLIMYCIN] here?
A: Its K app is 203000 M⁻¹.

Q: And the K app (Bos taurus)?
A: The K app was 774000 M⁻¹.

Q: And the K app (Tequatrovirus T4)?
A: The K app was 650000 M⁻¹.

Q: What about the K app (Nucleic Acid [2]) of the same molecule?
A: The K app was 3.48e+07 M⁻¹.

Q: Which IC50 (K562 [3]) does the source give for `CN(C)CCNC(=O)c1nc(NC(=O)c2nc(NC(=O)CBr)cn2C)cn1C` here?
A: Its IC50 is 400 µM.

Q: How did the K app (Nucleic Acid [1]) turn out when `CN(C)CCNC(=O)c1nc(NC(=O)c2nc(NC=O)cn2C)cn1C` was run?
A: Its K app is 23000 M⁻¹.

Q: And the K app (Bos taurus)?
A: Its K app is 32000 M⁻¹.

Q: And the K app (Tequatrovirus T4)?
A: The K app was 40000 M⁻¹.

Q: What about the K app (Nucleic Acid [2]) of the same molecule?
A: Its K app is 17000 M⁻¹.

Q: What about the IC50 (K562 [3]) of the same molecule?
A: The IC50 was over 500 µM.

Q: With `CN(C)CCNC(=O)c1nc(NC(=O)c2nc(NC(=O)C(Cl)Cl)cn2C)cn1C` as the molecule, how does the IC50 (K562 [3]) read?
A: The IC50 was over 500 µM.

Q: For `CN(C)CCNC(=O)c1nc(NC(=O)c2nc(NC(=O)C3CC3)cn2C)cn1C`, which IC50 (K562 [3]) is on record?
A: Its IC50 is over 500 µM.

Q: For `CCBr`, which K app (Nucleic Acid [2]) is on record?
A: The K app was 9.5e+06 M⁻¹.

Q: For `CN(C)CCNC(=O)c1nc(NC(=O)c2nc(NC(=O)c3nc(NC=O)cn3C)cn2C)cn1C`, which K app (Nucleic Acid [1]) is on record?
A: Its K app is 613000 M⁻¹.

Q: What about the K app (Bos taurus) of the same molecule?
A: The K app was 774000 M⁻¹.

Q: And the K app (Tequatrovirus T4)?
A: The K app was 667000 M⁻¹.

Q: What about the K app (Nucleic Acid [2]) of the same molecule?
A: Its K app is 594000 M⁻¹.

Q: How did the IC50 (K562 [3]) turn out when `CN(C)CCNC(=O)c1nc(NC(=O)c2nc(NC(=O)CCl)cn2C)cn1C` was run?
A: Its IC50 is 350 µM.

Q: Which results are given for `CN(C)CCNC(=O)c1nc(NC(=O)c2nc(NC(=O)c3ccc(N(CCCl)CCCl)cc3)cn2C)cn1C`?
A: CC50 (SK-MEL-2): 7.17 µM; CC50 (SK-OV-3): 52.9 µM; CC50 (MOLT-4): 18.1 µM; K app (Nucleic Acid [1]): 455000 M⁻¹; CC50 (SK-MEL-28): 5.69 µM; K app (Bos taurus): 456000 M⁻¹; CC50 (EKVX): 47.5 µM; CC50 (DMS-114): 5.83 µM; K app (Tequatrovirus T4): 236000 M⁻¹; CC50 (OVCAR-3): 56 µM; CC50 (SW-620): 9.95 µM; K app (Nucleic Acid [2]): 475000 M⁻¹; CC50 (K562 [4]): 17.2 µM; CC50 (M19-MEL): 5.64 µM; CC50 (U-251): 6.73 µM; CC50 (HCC 2998): 33.7 µM; CC50 (SF-268): 50 µM; CC50 (HOP-62): 52.3 µM; IC50 (K562 [3]): 12.5 µM; CC50 (SNB-75): 41 µM; CC50 (KM12): 47 µM; CC50 (SN12C): 15.6 µM; CC50 (HL-60): 7.84 µM; CC50 (NCI-H23): 47.1 µM; CC50 (Malme-3M): 6.14 µM; CC50 (OVCAR-4): 34.2 µM; CC50 (RXF 393): 50.3 µM; CC50 (COLO 205): 5.88 µM

Q: Which results are given for `CN(C)CCNC(=O)c1nc(NC(=O)c2nc(NC(=O)c3nc(NC(=O)c4ccc(N(CCCl)CCCl)cc4)cn3C)cn2C)cn1C`?
A: CC50 (SK-MEL-2): 0.65 µM; CC50 (SK-OV-3): 0.83 µM; CC50 (MOLT-4): 0.98 µM; K app (Nucleic Acid [1]): 495000 M⁻¹; CC50 (DMS-273): 0.99 µM; CC50 (SK-MEL-28): 0.91 µM; K app (Bos taurus): 591000 M⁻¹; CC50 (EKVX): 0.88 µM; CC50 (DMS-114): 0.54 µM; K app (Tequatrovirus T4): 168000 M⁻¹; CC50 (OVCAR-3): 0.72 µM; CC50 (SW-620): 0.79 µM; K app (Nucleic Acid [2]): 950000 M⁻¹; CC50 (K562 [4]): 0.58 µM; CC50 (M19-MEL): 0.56 µM; CC50 (U-251): 0.5 µM; CC50 (HCC 2998): 0.68 µM; CC50 (SF-268): 0.77 µM; CC50 (HOP-62): 1.17 µM; IC50 (K562 [3]): 0.3 µM; CC50 (SNB-75): 0.61 µM; CC50 (KM12): 0.96 µM; CC50 (SN12C): 0.61 µM; CC50 (HL-60): 0.72 µM; CC50 (NCI-H23): 0.96 µM; CC50 (Malme-3M): 2.63 µM; CC50 (OVCAR-4): 0.61 µM; CC50 (RXF 393): 0.66 µM; CC50 (COLO 205): 0.97 µM

Q: For `CN(C)CCNC(=O)c1nc(NC=O)cn1C`, which K app (Nucleic Acid [1]) is on record?
A: The K app was 2000 M⁻¹.

Q: And the K app (Bos taurus)?
A: Its K app is 25000 M⁻¹.

Q: For `N[C@@H](Cc1ccc(N(CCCl)CCCl)cc1)C(=O)O` [MELPHALAN], which IC50 (K562 [3]) is on record?
A: Its IC50 is 35 µM.
